In general, melting point refers to the temperature of the solid-liquid transition.

Data on 88 molecules can be found in a melting point compilation (Tetko et al.; mined from patent text by program, amines drawn as free bases though some values may be those of a salt).

SMILES strings stand for the structures.

The molecule `CCCC(CCCCCN1C(=O)c2ccccc2C1=O)(C(=O)OCC)C(=O)OCC` gave a melting point of 51 to 52 °C.

For the molecule `CCOC(=O)C(C(=O)N(C)C)=C(OC)c1ccc(Cl)cc1Cl`, the melting point was 88 to 92 °C.

`Cc1cc(C(=O)O)ccc1-c1cnc2[nH]c(=O)n(CC3CCCCC3)c2n1` came in with a melting point of 244 to 247 °C.

For the molecule `Cc1cc(C#N)nc(-c2ccc([N+](=O)[O-])cc2)c1`, the melting point was in the range of 146 to 156 °C.

With `Cc1nc(C=Cc2nc3ccc(F)cc3c(=O)n2-c2ccccc2Br)cs1`, the melting point was in the range of 233 to 234 °C.

Regarding `CC(=O)Nc1ccc(O)c(C(=O)CCC(=O)O)c1`, the melting point fell in the range of 205 to 206 °C.

`CN(C)C(=O)COc1cc(Cl)ccc1C(=O)O` registered a melting point of 141 to 142 °C.

Take `CC(C)(C)c1cc(C(=O)c2cccnc2)cc(C(C)(C)C)c1O`: the melting point is 144 °C.

Consider `O=C(NCc1ccc(Cl)cc1)c1nn(-c2ccccc2)c2sc(CN3CCOCC3)cc2c1=O`, for which the melting point was 182 to 184 °C.

On to `COC(=O)c1cc(=O)c2cc(OC)c(=O)ccc2n1C`, for which the melting point fell in the range of 181 to 183 °C.

On to `CC(C)(C)[Si](C)(C)OCCCC(=O)c1cc(-c2ccc(S(N)(=O)=O)cc2)n(C2CCCCC2)n1`, for which the melting point lay within 151 to 153 °C.

`CC(=O)NC1C(Oc2nc[nH]c2C(N)=O)OC(COC(C)=O)C(OC(C)=O)C1OC(C)=O` (stereo not drawn) gave a melting point of 133 to 135 °C.

`COCOc1cc(F)ccc1-c1cc(-c2cccc(N)c2)c(C#N)c(NC(=O)c2ccco2)n1` yielded a melting point of 204 to 206 °C.

Molecule `COc1cc(Nc2c(C#N)cnc3cc(OCCCN4CCN(C)CC4)c(OC)cc23)c(Cl)cc1Cl` displayed a melting point of 116 to 120 °C.

`CN(C(=O)OC(C)(C)C)c1cc(Oc2ccc(-c3nnn(C(c4ccccc4)(c4ccccc4)c4ccccc4)n3)cc2)ccc1[N+](=O)[O-]` had a melting point of 161 to 163 °C.

In turn, `CN1c2ccccc2-c2nc3ccc(Cl)cc3c3cc(OS(=O)(=O)C(F)(F)F)cc1c23` showed a melting point of 193 to 195 °C.

In the case of `O=C(Nc1nccs1)c1cnc2ccccc2c1O`, the melting point lay within 349 to 350 °C.

The molecule `CCN1CCN(c2c(F)cc3c(=O)c(C(=O)O)cn(CC)c3c2F)CC1` yielded a melting point of 236 to 239 °C.

Regarding `CC(NC(=O)Cc1cc(F)cc(F)c1)C(=O)NC1CCCCCNC(=O)C1` (stereo not drawn), the melting point is above 220 °C.

With `O=C1CC[C@]2(O)C[C@H]1OC2=O`, the melting point lay within 144 to 145 °C.

Consider `Fc1ccc(-c2nccc3c(CCl)cccc23)cc1`, for which the melting point lay in the range of 110 to 112 °C.

In turn, `Cc1ccccc1NS(=O)(=O)c1ccc(Br)cc1` returned a melting point of 114 °C.

`N#CC(C(=O)Nc1ccccc1)C(=O)c1ccc[nH]1` (stereo not drawn) displayed a melting point of 207 to 209 °C.

Consider `Cc1c(SCCN2CCOCC2)ccnc1CSc1nc2ccccc2n1C(=O)N(C)C`, for which the melting point is 117 to 119 °C.

`O=C(/C=C/CC1CCN(Cc2ccccc2)CC1)c1ccc(Nc2ncnc3c2CCC3)cc1`: the melting point is 184 to 185 °C.

On to `COc1ccc(-c2ccncc2OC2SCC(OC(C)=O)C(OC(C)=O)C2OC(C)=O)cc1` (stereo not drawn), for which the melting point was 193 °C.

Turning to `CS(=O)(=O)N1Cc2nc3c(N)nc4ccccc4c3n2CC(O)C1` (stereo not drawn), the melting point lay in the range of 282 to 283 °C.

As for `COc1ccc(C(=O)O)c(Oc2ccc(C(F)(F)F)cc2NC(=O)Nc2cc(C(F)(F)F)cc(C(F)(F)F)c2)c1`, the melting point was 248 °C.

On to `OCCNCc1nnc2n1-c1ccc(Cl)cc1C(c1ccccc1)=NC2`, for which the melting point lay within 162 to 164 °C.

Consider `Cc1ccc(NCc2ccc[nH]2)cc1O`, for which the melting point lay in the range of 115 to 117 °C.

`COc1cc(N2CCOCC2)ccc1Nc1ncc2cc3ccccc3n2n1` yielded a melting point of 169 to 173 °C.

On to `CCNS(=O)(=O)Cc1ccc(N)cc1`, for which the melting point is 161 to 164 °C.

Consider `COC(=O)c1ccc(-c2ccc(C(OC)OC)cc2)cc1`, for which the melting point lay within 76 to 77 °C.

In the case of `Cc1cc(N2CCN(C(=O)N3CCN(S(=O)(=O)c4ccc(Br)cc4)CC3)CC2)ncn1`, the melting point fell in the range of 215 to 216 °C.

Regarding `CCc1nc(OC)c(NC(=O)N2CCN(c3cc(OC)cc(OC)c3)CC2)cc1C(=O)Nc1cc(CO)cc(Nc2c3ccccc3nc3ccccc23)c1`, the melting point lay within 170 to 172 °C.

In turn, `CCc1ccc(CCc2ccccc2NC=O)nc1` had a melting point of 62 to 63.5 °C.

As to `c1ccc(-c2cn(-c3ncc(C4CCCCC4)c4ccccc34)cn2)cc1`, the melting point was in the range of 169 to 170 °C.

For the molecule `COc1ccc(-c2cc(CN3C(=O)c4ccccc4C3=O)c(=O)n(Cc3ccc(Cl)cc3)n2)cc1F`, the melting point lay within 212 to 214 °C.

Molecule `CCOP(=O)(CCN1CCC(N(NCCN2CCCC2)S(=O)(=O)c2ccc(Nc3nccc(Nc4ccc(F)cc4)n3)cc2)CC1)OCC` gave a melting point of 85 °C.

Turning to `N#Cc1cc(N)ccc1N1CCCC1`, the melting point came to 113 °C.

In turn, `O=C1CN(c2ccc(Cc3ccccc3)cc2)C(=S)N1c1ccc([N+](=O)[O-])cc1` showed a melting point of 209 °C.

For the molecule `N#CC(Cc1c[nH]cn1)(c1ccccc1)c1ccc(Br)cc1` (stereo not drawn), the melting point was 121 to 124 °C.

Take `Nc1ccc2c(ccn2C(=O)c2ccc(F)cc2)c1`: the melting point is 205 to 207 °C.

For `Cc1c(-c2ccccc2)oc2cc(NC(=O)C(=O)O)ccc2c1=O`, the melting point turned out to be 243 °C.

The molecule `CC(C)(C)c1cc(CCC(=O)NN2C(=O)C=CC2=O)cc(C(C)(C)C)c1O` registered a melting point of 90 to 94 °C.

`CC(C)=C(c1ccc(C(=O)O)cc1)c1ccc2c(c1)C(C)(C)CCC2(C)C` showed a melting point of 204 to 206 °C.

Consider `CC(C(=O)O)c1ccc2oc(Cc3ccc(F)cc3)nc2c1` (stereo not drawn), for which the melting point lay in the range of 91 to 93 °C.

As for `COc1cc2c(cc1OC)C(COCCCl)OCCC2` (stereo not drawn), the melting point is 90 to 91 °C.

Take `CNc1onc2c1CCC2`: the melting point is 52 °C.

The molecule `COc1cccc(-c2nc(N)ncc2-c2ccc(=O)n(C)n2)c1` registered a melting point of 195 °C.

The molecule `CC1(C)Cc2sc3c(c2C1)CCNC3=O` registered a melting point of 205 to 207 °C.

Turning to `CCCCCCCCCC1CNC(=O)O1` (stereo not drawn), the melting point was 83 to 85 °C.

On to `C=CCC1CC(c2c[nH]c(-c3ccc(F)cc3)c2-c2ccncc2)=CCN1C` (stereo not drawn), for which the melting point lay in the range of 178 to 180 °C.

`CCn1cc(-c2cccc(C(F)(F)F)c2)c(=O)c(-c2cccc(C(F)(F)F)c2)c1` gave a melting point of 185 °C.

On to `N=C(Nc1ccc(CCCC(=O)Nc2ccccc2)cc1)N1CCCC1`, for which the melting point lay in the range of 164 to 165 °C.

Molecule `CCC(=S)c1ccc(NS(C)(=O)=O)c(Oc2ccc(F)cc2F)c1` displayed a melting point of 74 to 76 °C.

Consider `COc1ccc(-c2nc3n(c2-c2ccncc2)CCC3)cc1`, for which the melting point worked out at 158 °C.

In turn, `CCCN1C(=O)N2C[C@@H](Cc3ccccc3)N=C2c2[nH]c(C3(O)CCCC3)nc21` yielded a melting point of 110 to 115 °C.

On to `O=C(O)c1cccc(-c2ccc3c(c2)C(NCc2ccc(Cl)cc2Cl)CC3)c1` (stereo not drawn), for which the melting point is 190 to 191 °C.

In the case of `CC(NC(=O)Cc1cc(F)cc(F)c1)C(=O)NC1C(=O)N(Cc2ccccc2)Cc2ccccc21` (stereo not drawn), the melting point lay within 144 to 145 °C.

Regarding `CC(=O)Oc1ccc(C(CN(C(C)=O)C(C)(C)C)OC(C)=O)nc1C` (stereo not drawn), the melting point was 124 to 128 °C.

Molecule `O=S1(=O)C=C(N2CCCCC2)c2ccccc2O1` registered a melting point of 187 to 189 °C.

For the molecule `CC(C)(C)c1ccc(/C=N/OCCCOc2ccc(CCC(=O)O)cc2)cc1`, the melting point lay in the range of 101 to 102 °C.

Regarding `CCOc1nc(C)nc2oc(-c3ccco3)nc12`, the melting point is 104 to 106 °C.

Take `NC(=O)CNC(=O)c1ccc(-c2cccc3cc(COc4cccc(C(F)(F)F)c4)sc23)cc1`: the melting point lay within 164 to 165 °C.

The molecule `CCOC(=O)c1oc2ccc(Br)c(OC(C)C)c2c1C` displayed a melting point of 48 to 50 °C.

`O=C(O)c1ccc2cccnc2c1O` gave a melting point of 264 to 266 °C.

As for `Cc1c(C(F)(F)F)cnc(O)c1Cl`, the melting point lay in the range of 204 to 205 °C.

Molecule `CC(C)C(NC(=O)C(F)(F)F)C(=O)O` (stereo not drawn) showed a melting point of 88 to 89 °C.

`Nc1c(Cl)cc(C(O)CNCCCCCCOCCCCCCc2cncnc2)cc1Cl` (stereo not drawn) registered a melting point of 59 to 60 °C.

As to `CSc1cccc(Oc2ncc(F)cc2C(=O)N[C@@H]2CCCC[C@H]2CO)c1` (relative stereo), the melting point was in the range of 128 to 129 °C.

`Fc1ccc(CSc2nnc(-c3ccc4c(c3)CCO4)o2)cc1C(F)(F)F` yielded a melting point of 94 to 95 °C.

Consider `ON=C1CCCOc2ccccc21`, for which the melting point lay within 96 to 98 °C.

As for `c1ccc(OC2CN(C(c3ccccc3)c3ccccc3)C2)cc1`, the melting point lay within 83 to 85 °C.

For the molecule `CC(=O)Nc1c(C)c2c(c(C)c1[N+](=O)[O-])OC(C)(C)C2`, the melting point is 203 to 204 °C.

Consider `CC(C)c1ccc2c(c1)C=C(/C=C/C=C/C=C/C(=O)O)CO2`, for which the melting point was 244 to 246 °C.

In turn, `CCOC(=O)C1CC2C(=O)N=C(C(C)C)C=C2S1=N` (stereo not drawn) returned a melting point of 182 to 183 °C.

With `NS(=O)(=O)c1ccc(/C(=C(\CCO)C(=O)O)c2ccc(F)cc2)cc1`, the melting point was in the range of 160 to 162 °C.

Take `Cc1ccnc(N2CCN(CCc3c(C)n4c5c(cc(C(O)C(C)C)cc35)CCC4)CC2)c1` (stereo not drawn): the melting point worked out at 140 °C.

`Cc1cccc(-c2[nH]c(C(C)C)nc2-c2cccc(-c3ccc(NS(C)(=O)=O)cc3)c2)n1` gave a melting point of 128 to 130 °C.

As for `CCC(C)(CC)c1cc(NC(=O)c2c(OC)cccc2OC)sn1`, the melting point lay in the range of 243 to 244 °C.

For the molecule `CC(=O)c1cc(-c2ccncc2)sc1Oc1ccccc1F`, the melting point was in the range of 93 to 96 °C.

Regarding `COC(=O)c1cc(N)cs1`, the melting point was in the range of 76 to 78 °C.

Take `COc1nc(NC(=O)NS(=O)(=O)c2c(C)cccc2OC)nc(OC)n1`: the melting point was 163 °C.

`CCC(O)c1ccc(Cc2c(Cl)cc(N3N=CCNC3=O)cc2Cl)cc1` (stereo not drawn) yielded a melting point of 148 to 149 °C.

`N#CCn1nnc(NC(=O)C2c3ccccc3Oc3ccccc32)n1` gave a melting point of 204 to 205 °C.

As for `Cc1cc(C#N)cc(C(=O)NCC2CC2)c1NC(=O)c1cc(C(F)(F)F)nn1-c1ncccc1Cl`, the melting point was in the range of 235 to 236 °C.

With `O=[N+]([O-])c1cc(Oc2ccccc2)ccc1OCc1ccccc1`, the melting point was in the range of 84 to 87 °C.
